Values of other authors as cited in patent publication US10130562B2, “Monomer mixture for the preparation of dental materials” (Ivoclar Vivadent AG, priority 2014, dated 2018).

Key:
rat = details: in vivo

SMILES: C=C(C)C(=O)OCCOCCOCCOC(=O)C(=C)C [TEGDMA, triethylene glycol dimethacrylate]
- gene mutations in the DNA molecules of mammals (DNA molecules of mammals): leads to gene mutations
- LD50 (rat): > 5000 mg/kg
